Source: patent publication US20250127770A1, “FORMULATIONS OF RADIPRODIL” (GRIN Therapeutics, Inc., priority 2021, published 2025)

Tests used:
[1] = Stability study of radiprodil solid forms (dihydrate vs anhydrous form A); type: physicochemical; conditions: in presence of water
[2] = Dissolution test, USPII paddle apparatus, 0.5% sodium lauryl sulphate solution in water; type: physicochemical; conditions: without reconstitution in SYRSPEND SF and water prior to the test; FIG. 2
Description: This study summarizes dissolution experiments preformed on the radiprodil drug substance and on the drug product including two drug loadings with and without reconstitution in SYRSPEND® and water prior to the dissolution test.
All dissolution experiments were performed on six vessels and the comparative curves were plotted using the average of them.
Some dissolution experiments were performed using prior to the dissolution a reconstitution in Syrpend® and water. In that case, the reconstitution was prepared and let under stirring for 1 night prior to the dissolution test. In order to mimic the clinical pharmacy manual, an additional test was performed with an extemporaneous suspension (15 min under stirring prior to the dissolution).
Dissolution and high performance liquid chromatography (HPLC) parameters used in the experiments are provided below in Tables […] and 12, respectively.
Radiprodil, as the dihydrate and Form A, as well as Form A containing granules (1% and 10% as described above) and blends of dihydrate and Form A (1% and 10% blends of dihydrate form and Form A) were submitted to dissolution tests in sodium lauryl sulfate (0.5% in water). […]

Structure (SMILES)	Stability of solid form [1]	Dissolution profile [2]
O=C(Nc1ccc2[nH]c(=O)oc2c1)C(=O)N1CCC(Cc2ccc(F)cc2)CC1 (single isomer, unassigned) [anhydrous form A, Radiprodil]	more stable than the dihydrate even in presence of water	
O=C(Nc1ccc2[nH]c(=O)oc2c1)C(=O)N1CCC(Cc2ccc(F)cc2)CC1 [dihydrate form, Radiprodil]		more rapid in aqueous media than the one of anhydrous form A
